Two compounds from patent US11685741B2, “Fluorescent probes” (University of Massachusetts, priority 2017, dated 2023) can be followed below.

Series [1] can be described thus: Solubility of sensor noted in NMR studies. Type of series: physicochemical. Conditions: NMR sample solution. An excerpt:
The binding site of Fe^2+ on Rh101D was investigated by 2D NMR. […] COSY NMR spectra are of sufficient resolution for the assignment of the peaks in the aromatic region (FIG. 44). After adding Fe^2+ to Rh101D, all the ^1H NMR signals were broadened.
In order to probe the binding site of Fe^2+ on the NIRh-Fret sensor, 1D and 2D ^1H NMR of the sensor NIRh-Fret was investigated first. […] The assignment of the ^1H NMR peaks was based on 2D ^1H-^1H COSY spectra.

Series [2] has as its system Bovine aortic endothelial cells (BAEC). Description: Confocal imaging of Fe2+ in BAEC cells. In kind it is cell-based. Particulars: for fluorescence of cells with sensor only / fluorescence of cells treated with Fe^2+ then Bpy: 10 μM sensor; for fluorescence of cells treated with Fe^2+ then Bpy: 100 μM Fe^2+ overnight, versus Fe^2+ supplement; for fluorescence of cells treated with Fe^2+ then Bpy / fluorescence of Bpy-treated cells: 1 mM Bpy; for fluorescence of Fe^2+-treated cells versus unsupplemented: 100 μM ferrous ammonium sulfate overnight, then 10 μM sensor 30 min; for fluorescence of Bpy-treated cells: versus control cells. On the procedure:
Bovine aortic endothelial cells BAEC cells, at an approximately density of 1.3 million/ml in complete EBM medium, were incubated with 100 μM ferrous ammonium sulfate (FAS, Fe (NH4)2(SO4)2 from a 10 mM stock solution) for overnight at 37° C. in a humid atmosphere of 5% CO2 and then the cells were washed with fresh EBM medium to remove excess Fe^2+. Then cells were incubated with Rh101D (10 μM, from 500 μM stock solution in DMF) at 37° C. for 30 min and then cells were washed with EBM media and then imaged. In addition, some cells were treated firstly with 100 μM Fe^2+ overnight and then the cells were washed with fresh EBM medium. For chelation experiments, Fe^2+-loaded cells or untreated cells were incubated with 1 mM 2,2′-bipyridyl (Bpy) at 37° C. for 30 min, then sensor was added followed by washing with the media, and then imaging was done. Controls were imaged without incubation with Fe^2+ or 2,2′-bipyridyl. HCT-116, a human colon adenocarcinoma cell line were used for concentration determination of Fe^2+ with the help of the ratiometric sensor Rh101D. HCT-116 were maintained in McCoy's 5A medium supplemented with 10% fetal bouvine serum and 5% antibiotic antimycotic in a 5% CO2 atmosphere at 37° C. Cultures were divided 1:2 every 48 h to an approximate cell density of 1.21 million cells/ml and used for experiments after 24 h. All experiments were performed with cells in the logarithmic growth phase.
A Zeiss LSM 710 laser-scanning confocal microscope system was used for cell imaging experiments in collaboration with a person in the lab. 40× oil-immersion objective lens were used to perform all the experiments. For imaging with the Rh101D sensor, excitation wavelength of the laser was 543 nm and emissions were collected over the range 545-625 nm. For images with MitoTracker Green FM, LysoTracker Deep Red, excitation wavelengths recommended by the manufacturer were 488 nm for MitoTracker, 633 nm for LysoTracker. Emissions were integrated at 492-535 nm (MitoTracker), 650-800 nm (LysoTracker), respectively.
The ability of Rh101D to detect Fe^2+ in live bovine aortic endothelial cells (BAEC) was investigated by confocal microscopy. […] For Fe^2+ repleting conditions, live BAEC cells were incubated with 100 μM of ferrous ammonium sulfate (Fe (NH4)2(SO4)2) at 37° C. for overnight followed by washing with EBM medium to remove excess Fe^2+ and then 10 μM of Rh101D was added to the culture media and was incubated at 37° C. for 30 min. […] For Fe^2+-depleting conditions, 2,2-bipyridyl (Bpy) which is known to be a selective Fe^2+-chelator was used to chelate Fe^2+[33]. […] This fluorescent intensity is almost the same as that of cells without Fe^2+ or Bpy treatment.
To explore this, the distribution of exchangeable Fe^2+ pools in live BAEC cells were further investigated using Rh101D, together with colocalization experiments using other dyes—MitoTracker Green FM (a green fluorescent dye which localizes to mitochondria in live cells regardless of mitochondrial membrane potential) and LysoTracker Deep Red (a fluorescent dye that stains acidic compartments such as endosomes and lysosomes in live cells). BAEC cells (without Fe^2+ treatment) were treated with Rh101D, MitoTracker Green FM, and […].
Bovine aortic endothelial cells (BAEC) were grown at 37° C. in a humid atmosphere of 5% CO2 atmosphere in Endothelial Basal Medium (EBM, Lonza) supplemented with 5% fetal bovine serum (FBS, ATCC). Cultures were divided into 1:2 every 48 h to an approximate cell density of 1.3 million cells/ml and used for experiments after 24 h.
A Zeiss LSM 710 laser-scanning confocal microscope system was used for cell imaging experiments in collaboration with a person in the lab. 40× oil-immersion objective lens were used to perform all the experiments. For imaging with the NIRh-Fret sensor, excitation wavelength of the laser was 633 nm and emissions were collected over the range 650-850 nm. […]

SMILES strings stand for the structures.

`CCN(CC)c1ccc2c(c1)OC1=C(CCC/C1=C\C=C1\N(C)c3ccccc3C1(C)C)C21c2ccccc2C(=O)N1/N=C\C=C\c1ccc(N(C)C)cc1` (stereo not shown) [NIRh-Fret, (E)-6′-(diethylamino)-2-(((1Z,2E)-3-(4-(dimethylamino)phenyl)allylidene)amino)-4′-(2-((E)-1,3,3-trimethylindolin-2-ylidene)ethylidene)-1′,2′,3′,4′-tetrahydrospiro[isoindoline-1,9′-xanthen]-3-one]: the solubility result in series [1] is recorded as “limited solubility”. In series [2], the “fluorescence of cells with sensor only” value was “weak fluorescence”, the “fluorescence of cells treated with Fe^2+ then Bpy” value is “marked decrease in fluorescent intensity”, the “fluorescence of Fe^2+-treated cells versus unsupplemented” value was “significant increase in fluorescent signals” and the “fluorescence of Bpy-treated cells” value was “decrease in fluorescence intensity”.
As for `CN(C)c1ccc(/C=C/C=N/N2C(=O)c3ccccc3C23c2cc4c5c(c2Oc2c3cc3c6c2CCCN6CCC3)CCCN5CCC4)cc1` [Rh101D], the solubility entry in series [1] is listed as “limited solubility”. In series [2], the “fluorescence of cells with sensor only” value was “weak fluorescence”, the “fluorescence of cells treated with Fe^2+ then Bpy” value was “marked decrease in fluorescent intensity”, the “fluorescence of Fe^2+-treated cells versus unsupplemented” value was “significant increase in fluorescent signals” and the “fluorescence of Bpy-treated cells” value is “decrease in fluorescence signal”.
